Assay results as given in paper PMC9230030, “Discovery of a Multifunctional Octapeptide from Lingzhi with Antioxidant and Tyrosinase Inhibitory Activity” (Pharmaceuticals, 2022).
Ends that are not written are not given here.

Key:
[1] = system: 5,6-dihydroxyindole-2-carboxylic acid oxidase; Tyrp1; test: Targeted proteomics in melanoma cells: Tyrp1; assay type: cell-based, Mus musculus; conditions: melanoma cells treated with octapeptide 50 μg/mL, 48 h, vs control; LC-MS/MS proteomics
Experimental: (§1) Although using the tyrosinase enzyme extracted from a mushroom for an in vitro tyrosinase inhibitory assay has been widely studied as a routine screening for tyrosinase inhibition, tyrosinase from the mushroom is located in the cytoplasm and is different from the mammalian tyrosinase that is found on the membrane of melanocytes. Therefore, cell-based assays are also usually utilized to identify the potential tyrosinase inhibitor. In our study, the effects of the octapeptide at 50 μg/mL in melanoma cells was investigated by a proteomics approach. […]
(§2) The Mus musculus skin melanoma cell line (B16-F10 ATCC, CRL-6475) and Cercopithecus aethiops kidney normal cell line (Vero ATCC, CCL-81) were used to explore the cell cytotoxicity. The effect of the octapeptide on the skin was evaluated in skin carcinoma cells. […] The cell viability was analyzed using the MTT (3-(4,5-dimethylthiazol-2-yl)-2,5-diphenyltetrazolium bromide) assay. […] After incubation for 24 h, the cell viability was measured by the optical absorbance at 630 and 570 nm using a microplate reader and transformed into the percentage of cell survival. […]
(§3) The mzXML data were evaluated by the relative comparison of the peak intensities of each peptide ion in all datasets by DeCyder MS Differential Analysis software version 2.0 (GE Healthcare Co., Boston, MA, USA). […]

mushroom tyrosinase = test: In vitro tyrosinase inhibition assay (dopachrome, absorbance at 475 nm); assay type: biochemical; conditions: octapeptide 0.05 mg/mL
Experimental: To understand how the octapeptide modulates melanogenic enzymes, the activity of tyrosinase in the presence of the peptide was measured by the colorimetric assay. We used the time-dependent assay to confirm that the inhibition reaction occurred with dopachrome accumulation (absorbance at 475 nm). The time-dependent tyrosinase inhibition and the inhibition percentage of the octapeptide at a 50 ug/mL concentration are shown in Figure 2. The inhibitory effect of the octapeptide was determined against mushroom tyrosinase. The mixture of 10 µL of tyrosinase (20 enzyme unit/mL) in 50 mM phosphate buffer, pH 6.8, was added to 96-well plates containing 10 µL of the octapeptide (final concentration = 0.05 mg/mL), then 180 µL of 1 mM L-DOPA was added to start the reaction. […] Monitoring the inhibitory activity by measuring the absorbance at 475 nm for 60 min in a kinetic manner (reading every 1 min) using a microplate reader (Synergy H1, Biotek Inc., Winooski, VT, USA). The tyrosinase inhibitory activity was expressed as a percentage of inhibition at the end-point reaction (t = 60 min) by the equation. […] where Abssample is the absorbance of the reaction with the octapeptide and Absblank denotes the absorbance of the reaction without the testing sample (a buffer in each assay was added instead of the testing sample).

[2] = system: L-dopachrome tautomerase; Dct; test: Targeted proteomics in melanoma cells: Dct; assay type: cell-based, Mus musculus; conditions: melanoma cells treated with octapeptide 50 μg/mL, 48 h, vs control; LC-MS/MS proteomics
Experimental: as §1, §2, §3

[3] = Ferric reducing antioxidant power (FRAP) assay; conditions: octapeptide 1 mg/mL, 10 µL; 30 min room temperature in the dark, absorbance 593 nm; mean ± SD, n = 3
Experimental: Since the antioxidant activity of a substance should be determined by different assays to study the radical scavenging mechanisms, the in vitro radical scavenging potential of the synthesized octapeptide was determined by three different common methods: 2,2-diphenyl-1-picrylhydrazyl (DPPH), 2,2′-azino-bis(3-ethylbenzothiazoline-6-sulfonate) (ABTS), and ferric reducing antioxidant power (FRAP) assays. […] The scavenging activities were calculated to be 0.121 ± 0.01 AsEAC and 0.173 ± 0.03 GaEAC for the DPPH and the ABTS assay, respectively.
For the DPPH scavenging activity, 10 µL of the octapeptide (1 mg/mL) was mixed with 200 µL DPPH solution (0.2 mM in methanol). […] The DPPH scavenging activity of the samples was expressed as the ascorbic acid equivalent antioxidant capacity (AsEAC). For the ABTS scavenging activity, ABTS radical solution (7 mM ABTS stock solution with 2.45 mM potassium persulfate) was diluted in 5 mM phosphate buffer saline (Gibco, Waltham, MA, USA), pH 7.4, to acquire an absorbance of 0.50 at 734 nm before performing the assay. […] The absorbance of the mixture was evaluated at 734 nm. The ABTS scavenging activity of the samples was expressed as the gallic equivalent antioxidant capacity (GaEAC). […] The absorbance was measured at 593 nm. The FRAP scavenging activity of the samples was expressed as FeSO4 molar equivalents.

[4] = system: Ras-related protein Rab-7L1; Rab29; test: Targeted proteomics in melanoma cells: Rab29; assay type: cell-based, Mus musculus; conditions: melanoma cells treated with octapeptide 50 μg/mL, 48 h, vs control; LC-MS/MS proteomics
Experimental: as §1, §2, §3

- tyrosinase inhibitory effect at end point (60 min) (mushroom tyrosinase; 1 mM L-DOPA, 50 mM phosphate buffer pH 6.8, 37 °C, t = 60 min, mean ± SD, n = 3): 13.48 ± 2.12%
- tyrosinase inhibitory effect during the first 30 min of the reaction (mushroom tyrosinase; time-dependent assay, rate similar to control): not observed
Sequence: PVRSSNCA [octapeptide, Proline-Valine-Arginine-Serine-Serine-Asparaine-Cysteine-Alanine]
- Relative Expression (Fold) of Tyrp1 [1]: 0.5034 Fold
- Relative Expression (Fold) of Dct [2]: 2.0460 Fold
- FRAP reductant ability, FeSO4 molar equivalents [3]: 2.21 ± 0.23 mM equivalent to FeSO4
- Relative Expression (Fold) of Rab29 [4]: 2.0646 Fold
